Positions of bridges follow the written chain, without caps; N, C: chain ends. Residues, ends and D or L forms follow the SMILES beside them.
Columns and labels:
[1] = tested on: last instar larvae of Pseudaletia separata; assay: Effect on growth (body weight) of last instar larvae after injection; type: in vivo; conditions: 7 picomoles injected on day 0, day 1 and day 2 of last instar; weight checked until day 3; control about 2.5 times day 0 weight on day 3
Procedure: To examine the effect of peptide I-a on the growth of last instar larvae of Pseudaletia separata, last instar larvae of P. separata were injected with 7 picomoles of peptide I-a for consecutive three days (day 0, day 1 and day 2). They were reared on an artificial diet and the weight of each larva was checked until day 3. […] The open circles ( ⃝) indicate the body weights of the last instar larvae injected with 7 picomoles of peptide I-a on day 0, day 1 and day 2 while the closed circles (●) indicate the body weights of last instar larvae injected with Ringer's solution on day 0, day 1 and day 2.

[2] = tested on: JH esterase; assay: JH esterase activity assay of hemolymph from injected larvae, (10-3H)JH I as substrate; type: in vivo, Pseudaletia separata; conditions: predetermined doses injected on day 1 and day 2; hemolymph collected on day 3
Procedure: The purified peptide I-a was diluted with Ringer's solution and injected, at a predetermined dose, into unparasitized last instar larvae of Pseudaletia separata on day 1 and day 2. The larvae were further reared on an artificial diet. On day 3, hemolymph was prepared from the larvae and centrifuged (500 x g, 4°C, 5 minutes). The supernatant thus collected was subjected to JH esterase activity assay. (10-³H)JH I was used as the substrate for activity assay and the JH-metabolizing activity was estimated based on the proportion of JH acid to the total product formed under the action of JH esterase.

[3] = tested on: unparasitized last instar larvae of Pseudaletia separata; assay: Insect development controlling activity (growth stage checked at 24-hour intervals); type: in vivo; conditions: 7 picomoles injected on day 1 and day 2; control Ringer's solution
Procedure: The purified peptide I-a was dissolved with Ringer's solution and injected, at a dose of 7 picomoles, into unparasitized last instar larvae of Pseudaletia separata on day 1 and day 2. Then the growth stage (larva, prepupa, pupa, or dead) of each larva was checked at 24-hour intervals and the number of individuals in each stage was recorded. Control larvae were injected with Ringer's solution alone.

CSCC[C@@H]1NC(=O)[C@H](Cc2ccc(O)cc2)NC(=O)CNC(=O)[C@H](C)NC(=O)[C@H](C(C)C)NC(=O)[C@@H](NC(=O)CNC(=O)CNC(=O)[C@H](CO)NC(=O)[C@H](Cc2ccccc2)NC(=O)[C@H](CC(N)=O)NC(=O)[C@@H](N)CCC(=O)O)CSSC[C@@H](C(=O)N[C@@H](CCCCN)C(=O)N2CCC[C@H]2C(=O)N[C@H](C(=O)N[C@@H](Cc2ccccc2)C(=O)N[C@@H](Cc2ccc(O)cc2)C(=O)N[C@@H](CCC(N)=O)C(N)=O)[C@@H](C)O)NC(=O)[C@H](CCCNC(=N)N)NC(=O)CNC(=O)[C@H](CC(=O)O)NC(=O)[C@@H]2CCCN2C(=O)[C@H]([C@@H](C)O)NC(=O)[C@H](CCCNC(=N)N)NC1=O [peptide I-a] (H-ENFSGGCVAGYMRTPDGRCKPTFYQ-NH2; disulfide 7-19)
body weight change [1]: only slight increases in body weight | JH esterase activity [2]: repressed the JH esterase activity in a dose dependent manner | prepupal stage came later than in control larvae [3]: 2 days | pupation later than in control larvae [3]: more than 2 days
